Tests used:
MCF7 [1] = assay: Induction of cell cycle arrest in human MCF7 cells assessed as S phase cells at 0.25 uM measured after 48 hrs by flow cytometry analysis (reference value: 9.31 %); assay type: functional
MCF7 [2] = assay: Induction of cell cycle arrest in human MCF7 cells assessed as less G1 phase cells at 0.50 uM measured after 48 hrs by flow cytometry analysis (reference value: 0.44 %); assay type: functional; conditions: dose 0.5 µM
[3] = MRT in Sprague-Dawley rat at 10 mg/kg, po by LC-MS/MS analysis; assay type: ADME, organism-based; conditions: in vivo
MCF7 [4] = assay: Induction of apoptosis in human MCF7 cells assessed as late apoptotic cells at 0.25 uM incubated for 48 hrs by Annexin-V-FITC/PI staining based flow cytometric analysis (reference value: 0.019 %); assay type: functional
CYP1A2 = target: T1, CYP1A2 (Homo sapiens, UniProt P05177); assay: Inhibition of CYP1A2 in human liver microsomes at 10 uM preincubated for 10 mins followed by addition of NADPH-regenerating system and measured after 15 mins by LC-MS/MS analysis relative to control; assay type: ADME, Microsome; conditions: time 25 min
T1 sequence (P05177 whole entry): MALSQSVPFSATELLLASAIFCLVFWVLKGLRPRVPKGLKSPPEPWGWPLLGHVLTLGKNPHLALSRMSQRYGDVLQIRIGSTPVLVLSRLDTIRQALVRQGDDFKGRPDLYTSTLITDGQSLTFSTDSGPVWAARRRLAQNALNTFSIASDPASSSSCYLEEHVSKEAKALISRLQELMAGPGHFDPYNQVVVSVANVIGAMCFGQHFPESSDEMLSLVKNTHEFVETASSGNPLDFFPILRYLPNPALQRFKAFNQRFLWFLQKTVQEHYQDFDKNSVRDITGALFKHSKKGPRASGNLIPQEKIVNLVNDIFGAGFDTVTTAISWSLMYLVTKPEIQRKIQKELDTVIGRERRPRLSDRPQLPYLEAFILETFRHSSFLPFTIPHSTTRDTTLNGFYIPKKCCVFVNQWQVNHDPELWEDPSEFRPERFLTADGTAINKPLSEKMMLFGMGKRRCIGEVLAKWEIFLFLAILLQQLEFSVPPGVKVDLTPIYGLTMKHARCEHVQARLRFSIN

MCF7 [5] = assay: Induction of apoptosis in human MCF7 cells assessed as late apoptotic cells at 2.5 uM incubated for 48 hrs by Annexin-V-FITC/PI staining based flow cytometric analysis (reference value: 0.019 %); assay type: functional
MCF7 [6] = assay: Induction of cell cycle arrest in human MCF7 cells assessed as G2 phase cells at 2.5 uM measured after 48 hrs by flow cytometry analysis (reference value: 31.8 %); assay type: functional
MCF7 [7] = assay: Induction of apoptosis in human MCF7 cells assessed as necrotic cells at 0.25 uM incubated for 48 hrs by Annexin-V-FITC/PI staining based flow cytometric analysis (reference value: 0.18 %); assay type: functional
MCF7 [8] = assay: Induction of cell cycle arrest in human MCF7 cells assessed as decrease in G1 phase cells at 2.5 uM measured after 48 hrs by flow cytometry analysis (reference value: 56.9 %); assay type: functional; parameters: scale not given: the % may be the effect or the level left
[9] = Metabolic stability in human liver microsomes assessed as compound remaining at 100 uM measured after 60 mins in the presence of NADPH by LC-MS/MS analysis; assay type: ADME, Microsome; conditions: read-out: Stability
MCF7 [10] = assay: Antiproliferative activity against human MCF7 cells assessed as cell growth inhibition incubated for 5 days by MTT assay; assay type: functional, cell-based; conditions: MCF7, 120 h
MCF7 [11] = assay: Induction of apoptosis in human MCF7 cells assessed as necrotic cells at 0.50 uM incubated for 48 hrs by Annexin-V-FITC/PI staining based flow cytometric analysis (reference value: 0.18 %); assay type: functional; conditions: dose 0.5 µM
MCF7 [12] = assay: Induction of cell cycle arrest in human MCF7 cells assessed as S phase cells at 1 uM measured after 48 hrs by flow cytometry analysis (reference value: 9.31 %); assay type: functional
MCF7 [13] = assay: Induction of apoptosis in human MCF7 cells assessed as total apoptotic cells at 2.50 uM incubated for 48 hrs by Annexin-V-FITC/PI staining based flow cytometric analysis relative to control; assay type: functional; conditions: dose 2.5 µM
MCF7 [14] = assay: Induction of apoptosis in human MCF7 cells assessed as viable cells at 0.50 uM incubated for 48 hrs by Annexin-V-FITC/PI staining based flow cytometric analysis (reference value: 97 %); assay type: functional; conditions: dose 0.5 µM
MCF7 [15] = assay: Induction of cell cycle arrest in human MCF7 cells assessed as S phase cells at 2.5 uM measured after 48 hrs by flow cytometry analysis (reference value: 9.31 %); assay type: functional
[16] = Clearance in Sprague-Dawley rat at 3 mg/kg, iv by LC-MS/MS analysis; assay type: ADME, organism-based; conditions: in vivo
MCF7 [17] = assay: Induction of cell cycle arrest in human MCF7 cells assessed as decrease in G1 phase cells at 0.10 uM measured after 48 hrs by flow cytometry analysis (reference value: 56.9 %); assay type: functional; parameters: scale not given: the % may be the effect or the level left; conditions: dose 0.1 µM
MCF7 [18] = assay: Induction of cell cycle arrest in human MCF7 cells assessed as G2 phase cells at 1 uM measured after 48 hrs by flow cytometry analysis (reference value: 31.8 %); assay type: functional
MCF7 [19] = assay: Induction of cell cycle arrest in human MCF7 cells assessed as greater G1 phase cells at 1 uM measured after 48 hrs by flow cytometry analysis (reference value: 0.78 %); assay type: functional
MCF7 [20] = assay: Induction of cell cycle arrest in human MCF7 cells assessed as S phase cells at 0.50 uM measured after 48 hrs by flow cytometry analysis (reference value: 9.31 %); assay type: functional; conditions: dose 0.5 µM
MCF7 [21] = assay: Induction of apoptosis in human MCF7 cells assessed as viable cells at 1 uM incubated for 48 hrs by Annexin-V-FITC/PI staining based flow cytometric analysis (reference value: 97 %); assay type: functional
MCF7 [22] = assay: Induction of apoptosis in human MCF7 cells assessed as total apoptotic cells at 0.10 uM incubated for 48 hrs by Annexin-V-FITC/PI staining based flow cytometric analysis relative to control; assay type: functional; conditions: dose 0.1 µM
[23] = Metabolic stability in human liver microsomes assessed as half-life at 100 uM measured upto 60 mins in the presence of NADPH by LC-MS/MS analysis; assay type: ADME, Microsome
[24] = Metabolic stability in human liver microsomes assessed as intrinsic clearance at 100 uM measured upto 60 mins in the presence of NADPH by LC-MS/MS analysis; assay type: ADME, Microsome; conditions: 1 h
MCF7 [25] = assay: Induction of cell cycle arrest in human MCF7 cells assessed as greater G1 phase cells at 0.10 uM measured after 48 hrs by flow cytometry analysis (reference value: 0.78 %); assay type: functional; conditions: dose 0.1 µM
MCF7 [26] = assay: Induction of apoptosis in human MCF7 cells assessed as late apoptotic cells at 1 uM incubated for 48 hrs by Annexin-V-FITC/PI staining based flow cytometric analysis (reference value: 0.019 %); assay type: functional
MCF7 [27] = assay: Induction of apoptosis in human MCF7 cells assessed as viable cells at 0.25 uM incubated for 48 hrs by Annexin-V-FITC/PI staining based flow cytometric analysis (reference value: 97 %); assay type: functional
[28] = AUClast in Sprague-Dawley rat at 3 mg/kg, iv by LC-MS/MS analysis; assay type: ADME, organism-based; parameters: time 0 - last, dose 3 mg/kg, route iv; conditions: in vivo
MCF7 [29] = assay: Induction of apoptosis in human MCF7 cells assessed as late apoptotic cells at 0.10 uM incubated for 48 hrs by Annexin-V-FITC/PI staining based flow cytometric analysis (reference value: 0.019 %); assay type: functional; conditions: dose 0.1 µM

MRT [3]: 3.13 h | inhibition at 0.25 h, 10 µM (CYP1A2): 21.2% | remaining at 1 h, 100 µM [9]: 25.2% | IC50 (MCF7 [10]): 360 nM | clearance [16]: 47.2 mL/min/kg | half-life at 100 µM [23]: 0.493 h | CLint [24]: 46.8 µL/min/mg | AUC(0-t) [28]: 1070 ng·h/mL
SMILES: Cc1cc(Nc2nc(NCc3ccc(F)cc3F)nc3c2cnn3C2CCOCC2)n[nH]1
Activity (MCF7 [1]): 10.67% | Activity (MCF7 [2]): 0.71% | Activity (MCF7 [4]): 6.18% | Activity (MCF7 [5]): 10.8% | Activity (MCF7 [6]): 67.6% | Activity (MCF7 [7]): 1.97% | Activity (MCF7 [8]): 9.8% | Activity (MCF7 [11]): 0.56% | Activity (MCF7 [12]): 19.2% | Activity (MCF7 [13]): 79.3% | Activity (MCF7 [14]): 32.2% | Activity (MCF7 [15]): 21.6% | Activity (MCF7 [17]): 53.4% | Activity (MCF7 [18]): 58.3% | Activity (MCF7 [19]): 0.61% | Activity (MCF7 [20]): 16.9% | Activity (MCF7 [21]): 27.5% | Activity (MCF7 [22]): 24.04% | Activity (MCF7 [25]): 0.62% | Activity (MCF7 [26]): 6.84% | Activity (MCF7 [27]): 67.1% | Activity (MCF7 [29]): 4.74%

From ChEMBL document CHEMBL5113403, “Design, synthesis, and biological evaluation of novel pyrazolo [3,4-d]pyrimidine derivatives as potent PLK4 inhibitors for the treatment of TRIM37-amplified breast cancer” (Eur J Med Chem, 2022)
